{
  "source": "paper PMC6543056",
  "about": "(Acta Pharmaceutica Sinica. B, 2019)",
  "target": "Vps34 (Homo sapiens, UniProt Q8NEB9)",
  "sequence (Q8NEB9 whole entry)": "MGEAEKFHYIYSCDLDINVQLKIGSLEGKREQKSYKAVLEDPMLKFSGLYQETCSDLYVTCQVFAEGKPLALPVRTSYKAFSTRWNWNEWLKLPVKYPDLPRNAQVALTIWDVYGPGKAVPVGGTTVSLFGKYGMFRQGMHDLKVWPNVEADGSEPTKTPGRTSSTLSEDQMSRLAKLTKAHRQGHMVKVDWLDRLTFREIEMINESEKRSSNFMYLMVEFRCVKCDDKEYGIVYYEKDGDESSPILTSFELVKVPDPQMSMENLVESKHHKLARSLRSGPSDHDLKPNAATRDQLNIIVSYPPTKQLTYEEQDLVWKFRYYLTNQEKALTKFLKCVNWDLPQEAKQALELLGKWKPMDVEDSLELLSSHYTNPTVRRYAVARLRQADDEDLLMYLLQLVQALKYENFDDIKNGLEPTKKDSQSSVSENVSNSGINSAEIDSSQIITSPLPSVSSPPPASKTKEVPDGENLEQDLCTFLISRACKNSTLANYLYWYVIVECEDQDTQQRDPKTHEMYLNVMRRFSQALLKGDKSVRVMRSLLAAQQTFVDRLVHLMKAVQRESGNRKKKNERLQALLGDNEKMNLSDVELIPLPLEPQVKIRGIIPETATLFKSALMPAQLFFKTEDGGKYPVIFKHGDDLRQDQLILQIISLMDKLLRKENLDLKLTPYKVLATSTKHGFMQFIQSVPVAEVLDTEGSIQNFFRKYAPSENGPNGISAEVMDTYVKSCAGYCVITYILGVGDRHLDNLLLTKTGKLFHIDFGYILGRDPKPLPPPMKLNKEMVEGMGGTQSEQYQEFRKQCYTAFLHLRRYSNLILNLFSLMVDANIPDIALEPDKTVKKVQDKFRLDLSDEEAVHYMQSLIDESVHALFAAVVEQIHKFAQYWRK",
  "assay": "ELISA assay of Vps34 kinase activity",
  "assay_type": "biochemical",
  "conditions": "Fig. S4",
  "data": [
    {"compound": "O=C1/C(=C/C=C/c2ccccc2)Oc2cc(O)ccc21", "note": "[1d]", "values": [
      {"measurement": "Vps34 inhibition of analogues, SAR (in words)", "value": "abolishment of activity"}
    ]}
  ]
}
